Drawing on patent US12435072B2, “Compounds” (Vicore Pharma AB, priority 2019, dated 2025), this text covers inhibition and IC50 for 8 compounds.

In data set [1] the test system is CYP3A4&5. Description: CYP inhibition in human liver microsomes, CYP3A4&5 (testosterone). The note with it: probe testosterone, substrate testosterone, read-out: CYP3A4&5 testosterone Inh %. It counts as in vitro ADME. On the procedure:
(§1) The following substrates were used: CYP1A phenacetin, CYP2B6 bupropion, CYP2C8 paclitaxel and amodiaquine, CYP2C9 diclofenac, CYP2C19 omeprazole, CYP2D6 dextromethorphan, CYP3A midazolam and testosterone. At the end of the incubation, the formation of metabolite was monitored by HPLC-MS/MS as the peak area response.
For orientation: Liver microsomes are vesicles of endoplasmic reticulum, rich in cytochrome P450 enzymes.

Data set [2] deals with CYP3A4 (Homo sapiens, UniProt P08684). Description: CYP inhibition in human liver microsomes, CYP3A4 (midazolam). The data set is classed as in vitro ADME. Further details: incubated with human liver microsomes; tissue Eurofins ITEMG232; host or cells: human liver microsomes. The note with it: probe midazolam, substrate midazolam, read-out: CYP3A4 midazolam Inh %. The method, then:
as §1

Data set [3] has as its target T1, human recombinant AT2 receptor (Homo sapiens, UniProt P50052).
T1 construct: purchased Eurofins ITEM26
T1 sequence (P50052 1-363): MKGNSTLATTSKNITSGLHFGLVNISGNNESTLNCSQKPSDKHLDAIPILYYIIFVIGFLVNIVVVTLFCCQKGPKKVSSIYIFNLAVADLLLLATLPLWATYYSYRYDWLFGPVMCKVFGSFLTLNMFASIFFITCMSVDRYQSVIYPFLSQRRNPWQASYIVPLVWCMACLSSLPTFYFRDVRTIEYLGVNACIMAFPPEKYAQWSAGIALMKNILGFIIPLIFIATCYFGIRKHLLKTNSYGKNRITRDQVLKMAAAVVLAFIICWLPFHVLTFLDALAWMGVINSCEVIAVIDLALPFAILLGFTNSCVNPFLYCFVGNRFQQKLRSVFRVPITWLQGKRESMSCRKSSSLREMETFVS
Description: Binding to AT2 receptor, radiometric scintillation assay (Eurofins). The note with it: ligand 125I CGP 42112A, tested at 1, 10, 100 and 1000 nM. The method, then:
(§2) Compounds were evaluated for binding to the human recombinant AT2 and AT1 receptor according to Eurofins protocol ITEM26 and ITEM24 using a radiometric scintillation assay.

In data set [4] the target is CYP2C9 (Homo sapiens, UniProt P11712). Description: CYP inhibition in human liver microsomes, CYP2C9. It counts as in vitro ADME. Also noted: incubated with human liver microsomes; tissue Eurofins ITEMG232; host or cells: human liver microsomes. The following applies: probe diclofenac, substrate diclofenac, read-out: CYP2C9 Inh %. The method, boiled down: (§3)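 Human liver microsomes were incubated with isoform-selective probe substrates: diclofenac for CYP2C9, dextromethorphan for CYP2D6, and paclitaxel and amodiaquine for CYP2C8. After incubation, metabolite formation was measured by HPLC-MS/MS as peak area response.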

Data set [5] has as its target T2, CYP2D6 (Homo sapiens, UniProt P10635).
T2 construct: incubated with human liver microsomes; tissue Eurofins ITEMG232; host or cells: human liver microsomes
Description: CYP inhibition in human liver microsomes, CYP2D6. The data set is classed as in vitro ADME. The note with it: probe dextromethorphan, substrate dextromethorphan, read-out: CYP2D6 Inh %. The gist of the method: as §3

The target in data set [6] is T3, human recombinant AT1 receptor (Homo sapiens, UniProt P30556).
T3 construct: purchased Eurofins ITEM24
T3 sequence (P30556 1-359): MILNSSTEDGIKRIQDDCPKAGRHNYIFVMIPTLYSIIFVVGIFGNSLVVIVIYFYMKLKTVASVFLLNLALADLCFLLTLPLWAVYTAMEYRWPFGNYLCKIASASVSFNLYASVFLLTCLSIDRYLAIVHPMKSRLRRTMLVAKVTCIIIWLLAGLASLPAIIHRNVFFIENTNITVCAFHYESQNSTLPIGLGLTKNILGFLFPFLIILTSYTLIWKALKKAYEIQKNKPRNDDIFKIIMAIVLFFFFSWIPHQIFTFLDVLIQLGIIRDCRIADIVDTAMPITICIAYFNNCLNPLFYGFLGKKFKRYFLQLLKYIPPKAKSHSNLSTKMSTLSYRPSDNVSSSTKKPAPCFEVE
Description: Binding to AT1 receptor, radiometric scintillation assay (Eurofins). The note with it: ligand 125I(sar1,Ile8)-AT-II, tested at 1 and 10 μM. On the procedure:
as §2

Data set [7] addresses T4, CYP1A (Homo sapiens, UniProt P05177).
T4 construct: incubated with human liver microsomes; tissue Eurofins ITEMG232; host or cells: human liver microsomes
T4 sequence (P05177 1-516): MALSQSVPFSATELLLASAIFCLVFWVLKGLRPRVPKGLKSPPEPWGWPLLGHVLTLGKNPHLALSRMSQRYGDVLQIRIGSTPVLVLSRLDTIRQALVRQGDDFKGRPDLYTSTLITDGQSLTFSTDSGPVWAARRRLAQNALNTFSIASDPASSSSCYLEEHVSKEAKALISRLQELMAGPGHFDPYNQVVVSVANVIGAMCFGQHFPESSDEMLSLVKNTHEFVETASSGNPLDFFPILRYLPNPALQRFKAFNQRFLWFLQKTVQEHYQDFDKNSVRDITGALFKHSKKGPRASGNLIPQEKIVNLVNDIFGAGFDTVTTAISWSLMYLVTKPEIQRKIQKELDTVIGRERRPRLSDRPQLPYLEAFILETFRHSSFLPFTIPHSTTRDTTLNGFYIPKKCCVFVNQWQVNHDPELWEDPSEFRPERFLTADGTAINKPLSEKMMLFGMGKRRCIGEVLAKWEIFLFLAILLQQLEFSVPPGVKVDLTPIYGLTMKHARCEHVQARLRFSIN
Description: CYP inhibition in human liver microsomes, CYP1A. The data set is classed as in vitro ADME. The following applies: probe phenacetin, substrate phenacetin, read-out: CYP1A Inh %. The method, then:
as §1

In data set [8] the target is T5, CYP2C19 (Homo sapiens, UniProt P33261).
T5 construct: incubated with human liver microsomes; tissue Eurofins ITEMG232; host or cells: human liver microsomes
Description: CYP inhibition in human liver microsomes, CYP2C19. It counts as in vitro ADME. The note with it: probe omeprazole, substrate omeprazole, read-out: CYP2C19 Inh %. The method, then: as §1

Data set [9] has as its target T6, CYP2B6 (Homo sapiens, UniProt P20813).
T6 construct: incubated with human liver microsomes; tissue Eurofins ITEMG232; host or cells: human liver microsomes
T6 sequence (P20813 1-491): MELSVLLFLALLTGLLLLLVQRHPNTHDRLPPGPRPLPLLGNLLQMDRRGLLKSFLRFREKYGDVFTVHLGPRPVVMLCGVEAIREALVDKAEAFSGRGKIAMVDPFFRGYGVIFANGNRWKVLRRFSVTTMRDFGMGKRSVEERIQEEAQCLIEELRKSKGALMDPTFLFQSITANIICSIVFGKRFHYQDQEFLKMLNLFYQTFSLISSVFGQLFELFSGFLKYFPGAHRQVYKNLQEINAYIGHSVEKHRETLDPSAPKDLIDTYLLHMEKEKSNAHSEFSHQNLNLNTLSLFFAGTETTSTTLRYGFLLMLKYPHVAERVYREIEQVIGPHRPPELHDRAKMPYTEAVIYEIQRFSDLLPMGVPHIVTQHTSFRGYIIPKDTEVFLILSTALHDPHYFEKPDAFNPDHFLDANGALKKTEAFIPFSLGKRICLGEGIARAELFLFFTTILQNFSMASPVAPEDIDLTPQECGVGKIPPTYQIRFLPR
Description: CYP inhibition in human liver microsomes, CYP2B6. The following applies: probe bupropion, substrate bupropion, read-out: CYP2B6 Inh %. The data set is classed as in vitro ADME. The method, then:
as §1

T2 sequence (P10635 whole entry): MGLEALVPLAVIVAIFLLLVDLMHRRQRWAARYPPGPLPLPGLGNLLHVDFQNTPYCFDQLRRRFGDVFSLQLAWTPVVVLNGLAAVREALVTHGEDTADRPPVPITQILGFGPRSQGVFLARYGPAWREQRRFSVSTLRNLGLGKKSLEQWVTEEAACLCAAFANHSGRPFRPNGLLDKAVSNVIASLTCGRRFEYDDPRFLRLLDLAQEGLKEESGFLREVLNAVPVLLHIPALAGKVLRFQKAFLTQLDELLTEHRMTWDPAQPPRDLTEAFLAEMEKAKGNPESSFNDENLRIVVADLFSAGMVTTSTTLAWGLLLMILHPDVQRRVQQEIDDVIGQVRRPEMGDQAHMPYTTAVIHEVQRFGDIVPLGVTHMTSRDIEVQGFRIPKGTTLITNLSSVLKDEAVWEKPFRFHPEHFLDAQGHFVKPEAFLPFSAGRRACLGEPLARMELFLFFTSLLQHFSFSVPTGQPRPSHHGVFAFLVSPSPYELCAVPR
CYP3A4, sequence (P08684 whole entry): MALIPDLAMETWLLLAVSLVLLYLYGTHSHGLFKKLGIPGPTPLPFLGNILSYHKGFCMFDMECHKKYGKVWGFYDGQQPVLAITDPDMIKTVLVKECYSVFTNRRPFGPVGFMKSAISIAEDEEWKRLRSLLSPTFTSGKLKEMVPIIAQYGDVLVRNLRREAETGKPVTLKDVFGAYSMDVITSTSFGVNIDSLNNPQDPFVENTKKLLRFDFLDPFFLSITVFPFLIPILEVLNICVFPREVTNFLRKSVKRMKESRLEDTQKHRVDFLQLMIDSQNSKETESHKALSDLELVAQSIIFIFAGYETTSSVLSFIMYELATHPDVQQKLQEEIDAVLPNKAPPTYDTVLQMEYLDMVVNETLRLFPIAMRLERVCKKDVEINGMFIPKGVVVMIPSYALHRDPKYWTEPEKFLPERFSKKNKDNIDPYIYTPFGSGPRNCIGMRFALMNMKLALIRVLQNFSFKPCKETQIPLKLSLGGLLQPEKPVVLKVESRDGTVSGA
T5 sequence (P33261 whole entry): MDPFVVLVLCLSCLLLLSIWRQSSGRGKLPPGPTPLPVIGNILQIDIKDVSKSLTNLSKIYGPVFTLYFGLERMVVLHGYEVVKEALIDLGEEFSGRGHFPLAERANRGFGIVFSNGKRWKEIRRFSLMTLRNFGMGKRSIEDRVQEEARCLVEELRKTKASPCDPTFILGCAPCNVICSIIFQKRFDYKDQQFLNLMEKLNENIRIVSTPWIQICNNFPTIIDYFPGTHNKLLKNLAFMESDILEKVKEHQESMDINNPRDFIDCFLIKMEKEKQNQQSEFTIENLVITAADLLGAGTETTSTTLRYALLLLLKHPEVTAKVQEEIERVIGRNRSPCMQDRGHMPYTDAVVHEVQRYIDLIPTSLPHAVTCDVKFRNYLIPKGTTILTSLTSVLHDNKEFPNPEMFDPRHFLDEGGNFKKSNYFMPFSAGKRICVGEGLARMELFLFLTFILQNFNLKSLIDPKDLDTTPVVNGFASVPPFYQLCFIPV
CYP2C9, sequence (P11712 whole entry, canonical isoform): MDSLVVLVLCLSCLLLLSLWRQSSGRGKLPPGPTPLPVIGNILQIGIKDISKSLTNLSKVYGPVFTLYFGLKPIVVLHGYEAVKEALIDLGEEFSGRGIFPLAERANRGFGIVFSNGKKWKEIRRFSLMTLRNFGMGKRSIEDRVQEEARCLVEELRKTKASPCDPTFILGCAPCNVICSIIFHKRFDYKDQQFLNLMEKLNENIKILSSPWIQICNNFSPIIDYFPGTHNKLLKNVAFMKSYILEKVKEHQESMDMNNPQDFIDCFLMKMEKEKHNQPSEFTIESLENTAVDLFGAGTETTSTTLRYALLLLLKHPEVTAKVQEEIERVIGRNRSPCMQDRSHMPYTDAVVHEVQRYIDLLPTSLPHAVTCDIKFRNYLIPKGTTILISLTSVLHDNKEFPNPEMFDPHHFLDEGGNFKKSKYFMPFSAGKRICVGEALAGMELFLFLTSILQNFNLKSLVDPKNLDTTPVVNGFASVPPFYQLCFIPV

Consider `Cc1nccn1Cc1ccc(-c2cc(CC(C)C)sc2S(=O)(=O)NC(=O)NCc2ccccc2)cc1` [Example 1, 1-benzyl-3-[[5-isobutyl-3-[4-[(2-methylimidazol-1-yl)methyl]phenyl]-2-thienyl]sulfonyl]urea], for which the inhibition at 10 µM in data set [1] was 21.4%; in data set [2] it was 41.3%; in [4], 49.7%; in data set [5], 14.3%; in data set [7] it was 7.3%; in data set [8] it was 59.1%. In data set [9], the inhibition at 10 µM amounted to 19%. Also, the values for the IC50 in [3] and in [6] were 4 nM and above 1000 nM, respectively.

`Cc1nccn1Cc1ccc(-c2cc(CC(C)C)sc2S(=O)(=O)NC(=O)NCc2ccccn2)cc1` [Example 2, 3-(5-isobutyl-3-{p-[(2-Methyl-1H-imidazol-1-yl)methyl]phenyl}-2-thienylsulfonyl)-1-[(2-pyridyl)methyl]urea]: the inhibition at 10 µM in [1] is 0.3%; in data set [2] it was 22.1%; in data set [4], 30.4%; in data set [5], 8.6%; in data set [7] it was 5%; in data set [8], 35.4%. In addition, in data set [9], the inhibition at 10 µM was 8.2%. For the same compound, the half-inhibitory concentration (IC50) in [3] was 5.5 nM; in data set [6] it was above 10000 nM.

Consider `CCCCNC(=O)NS(=O)(=O)c1sc(CC(C)C)cc1-c1ccc(Cn2ccnc2C)cc1` [Example 4, 1-Butyl-3-(5-isobutyl-3-{p-[(2-methyl-1H-imidazol-1-yl)methyl]phenyl}-2-thienylsulfonyl)-urea], for which the inhibition at 10 µM is 8.2% in data set [1]; 17.1% in data set [2]; 31.3% in data set [4]; 7.7% in data set [5]; 10.5% in data set [7]; 37.5% in data set [8]. In addition, in [9], the inhibition at 10 µM came out at 12.7%. The IC50 in data set [3] is 10.5 nM; in data set [6], above 10000 nM.

In the case of `Cc1nccn1Cc1ccc(-c2cc(CC(C)C)sc2S(=O)(=O)NC(=O)NCCCC(F)(F)F)cc1` [Example 5, 3-(5-isobutyl-3-{p-[(2-Methyl-1H-imidazol-1-yl)methyl]phenyl}-2-thienylsulfonyl)-1-(4,4,4-trifluorobutyl)-urea], the inhibition at 10 µM amounted to 14.7% in data set [1]; 26.7% in data set [2]; 27.9% in [4]; 13.2% in data set [5]; 7.3% in [7]; 50.4% in [8]. Besides, the inhibition at 10 µM in data set [9] turned out to be 9.6%. For the same compound, the concentration for half-maximal inhibition (IC50) in [3] is 14.8 nM; in data set [6] it was above 10000 nM.

As to `CCc1nccn1Cc1ccc(-c2cc(CC(C)C)sc2S(=O)(=O)NC(=O)NCc2ccccc2)cc1` [Example 6, 1-Benzyl-3-(3-{p-[(2-ethyl-1H-imidazol-1-yl)methyl]phenyl}-5-isobutyl-2-thienylsulfonyl)-urea], the inhibition at 10 µM in data set [1] stood at 13.2%; in data set [2] it was 28.5%; in [4] it was 51.4%; in data set [5] it was 27.3%; in data set [7], 6.8%; in [8] it was 57%. In addition, the inhibition at 10 µM in data set [9] turned out to be 18.1%. Moreover, the IC50 in data set [3] was 3.5 nM; in data set [6], above 1000 nM.

For `CCc1nccn1Cc1ccc(-c2cc(CC(C)C)sc2S(=O)(=O)NC(=O)NCCOC)cc1` [Example 7, 3-(3-{p-[(2-Ethyl-1H-imidazol-1-yl)methyl]phenyl}-5-isobutyl-2-thienylsulfonyl)-1-(2-methoxy-ethyl)urea], the inhibition at 10 µM turned out to be 3% in [1]; 10.1% in data set [2]; 10.2% in data set [4]; 3.2% in data set [5]; 10.6% in data set [7]; 37.9% in data set [8]. For the same compound, the inhibition at 10 µM in data set [9] is -0.4%. Further, the results for the IC50 in [3] and in [6] were 15.2 nM and above 10000 nM, respectively.

Consider `Cc1nccn1Cc1ccc(-c2cc(CC(C)C)sc2S(=O)(=O)NC(=O)NCc2ccccn2)cc1F` [Example 13, 3-(3-{3-Fluoro-4-[(2-methyl-1H-imidazol-1-yl)methyl]phenyl}-5-isobutyl-2-thienylsulfonyl)-1-[(2-pyridyl)methyl]urea], for which the inhibition at 10 µM in data set [1] amounted to 9%; in [2], 80%; in [4], 32%; in [5], 12%; in data set [7], 16%; in data set [8], 40%. Further, in [9], the inhibition at 10 µM is 3%. Besides, the results for the half-maximal inhibitory concentration (IC50) in data set [3] and in [6] were 0.53 nM and 26000 nM, respectively.

Regarding `Cc1nccn1Cc1ccc(-c2cc(CC(C)C)sc2S(=O)(=O)NC(=O)NCCC(F)(F)F)cc1F` [Example 14, 3-(3-{3-Fluoro-4-[(2-methyl-1H-imidazol-1-yl)methyl]phenyl}-5-isobutyl-2-thienylsulfonyl)-1-(3,3,3-trifluoropropyl)urea], the inhibition at 10 µM in data set [1] came to 33%; in data set [2], 30%; in [4], 65%; in data set [5] it was 30%; in data set [7], 13%; in data set [8] it was 62%. Moreover, the inhibition at 10 µM in [9] turned out to be 43%. Moreover, the IC50 came to 3.3 nM in data set [3] and 25000 nM in data set [6].

For orientation: IC50 means the point on the concentration scale where inhibition reaches its midpoint.
